The target of one test is BIR-3 domain of cIAP-1 (Homo sapiens, UniProt Q13490). The test can be described thus: Fluorescence polarization binding assay, cIAP-1 BIR-3 domain. (In fluorescence polarisation assays a small probe gives low polarisation when free and higher when bound to something large.)
The target of another test is BIR-3 domain of XIAP (Homo sapiens, UniProt P98170). The test can be described thus: Fluorescence polarization binding assay, XIAP BIR-3 domain.
A further test relates to SK-OV-3 cells. In words: MTT cell growth assay in SK-OV-3 ovarian cancer cells. In kind it is cell-based. Conditions: Homo sapiens; SK-OV-3 cells, 72 hrs; read-out: MTT EC50. As to the method: The MTT assay is an example of an assay that has been used for measuring cell growth as previously described (Hansen, M. B., Nielsen, S. E., and Berg, K. (1989) J. Immunol. Methods 119, 203-210) and incorporated herein by reference in its entirety. Briefly, SK-OV-3 cells were seeded in 96-well plates in McCoy's medium containing 10% fetal bovine serum […] (10,000 per well) and incubated overnight at 37° C.
μM) and the plates were incubated at 37° C. for an additional 72 hrs. This incubation time was optimal for measuring inhibitory effects of different analogs. 50 microliters of 5 mg/mL MTT reagent to each well was added and the plates were incubated at 37° C. for 3 hours. At the end of incubation period, 50 microliters of DMSO was added to each well to dissolve cells and the optical density (OD) of the wells was measured with a microplate reader (Victor^2 1420, Wallac, Finland) at 535 nm. Cell survival (CS) was calculated by the following equation:
CS=(OD treated well/mean OD control wells)×100%.
The EC50 (Table 1), defined as the drug concentration that results in 50% CS, was derived by calculating the point where the dose-response curve crosses the 50% CS point using GraphPad Prism.
A general note: Tetrazolium assays rely on reduction of a dye to a coloured formazan, in cell work by metabolically active cells.

pEC50, pIC50: −log10 of the molar value. Residues, ends and D or L forms follow the SMILES beside them.

The source of these data is patent US20130040893A1, “TREATMENT OF PROLIFERATIVE DISORDERS” (TETRALOGIC PHARMACEUTICALS CORPORATION, priority 2005, published 2013).

BIR-3 domain of XIAP, sequence (P98170 241-356 limits assumed): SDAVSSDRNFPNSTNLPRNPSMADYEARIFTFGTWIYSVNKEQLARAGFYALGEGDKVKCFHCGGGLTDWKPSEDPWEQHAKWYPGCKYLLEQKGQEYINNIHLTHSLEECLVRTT
BIR-3 domain of cIAP-1, sequence (Q13490 266-352 limits assumed): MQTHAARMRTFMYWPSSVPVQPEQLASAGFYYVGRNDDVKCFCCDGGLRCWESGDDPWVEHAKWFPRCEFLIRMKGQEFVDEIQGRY
Protocol for BIR-3 domain of XIAP: (§1) IC50 values (Table I) were determined from the plot using nonlinear least-squares analysis using GraphPad Prism.
(§2) We have utilized the specificity of this IAP binding motif in a fluorescence polarization assay to measure the binding affinities for cIAP-1 Antagonists. The fluorescence polarization assay consists of FP peptide {Sri: What is “FP Peptide”?}, and the recombinant BIR3 domain of the XIAP protein. The FP peptide and mimics of cIAP-1 N-terminus compete for binding to the BIR3 protein. […] If a peptide, peptidomimetic, or other small molecule being tested is a competitor, then it succeeds in displacing the FP peptide, resulting in a low mP value. Molecules that compete with the FP peptide can be titrated and IC50 values determined (GraphPad Prism nonlinear regression curve-fitting program) by plotting mp value as the direct measure of fraction bound vs. the log of the compound concentration.
Protocol for BIR-3 domain of cIAP-1: as §1, §2

What is called pIC50 is −log10 of the IC50, conventionally taken in molar units. Read a low pIC50 as a high IC50. For `CC(C)[C@H](NC(=O)[C@H](C)N)C(=O)N1CCC[C@H]1C(=O)N[C@@H](Cc1ccccc1)C(=O)O` [AVPF, reference compound] (H-AVPF-OH), the pIC50 at BIR-3 domain of cIAP-1 was 7.00 to 8.00.
As usually defined, the pEC50 is the negative decadic logarithm of the EC50, by convention in mol/L. As to `CCC(C)[C@H](NC(=O)[C@H](C)NC)C(=O)N1CCC[C@H]1Cc1c2n(c3ccc(F)cc13)CCn1c-2c(C[C@@H]2CCCN2C(=O)[C@@H](NC(=O)[C@H](C)NC)C(C)CC)c2cc(F)ccc21` (stereo partly drawn) [A], the values for the pIC50 on BIR-3 domain of XIAP and on BIR-3 domain of cIAP-1 were 7.00 to 8.00 and over 8.00, respectively. Also, the pEC50 with SK-OV-3 cells was over 8.00.
As to `CN[C@@H](C)C(=O)N[C@H](C(=O)N1CCC[C@H]1Cc1c[nH]c2ccc(C)cc12)[C@@H](C)O` [C], the pIC50 at BIR-3 domain of XIAP was under 7.00; at BIR-3 domain of cIAP-1, over 8.00. Also, in the test on SK-OV-3 cells, the pEC50 is over 8.00.
In the case of `CN[C@@H](C)C(=O)N[C@H](C(=O)N1C[C@@H](OC(C)=O)C[C@H]1Cc1c[nH]c2ccccc12)[C@@H](C)O` [D], the pIC50 at BIR-3 domain of XIAP and on BIR-3 domain of cIAP-1 was under 6.00 in each case.
Consider `CN[C@@H](C)C(=O)N[C@H](C(=O)N1C[C@@H](OC(C)=O)C[C@H]1Cc1c[nH]c2ccccc12)C(C)(C)C` [E], for which the pIC50 at BIR-3 domain of XIAP was under 7.00; at BIR-3 domain of cIAP-1 it was over 8.00. Further, the pEC50 with SK-OV-3 cells was 7.00 to 8.00.
`CN[C@@H](C)C(=O)N[C@H](C(=O)N1C[C@@H](OC(C)=O)C[C@H]1Cc1c[nH]c2ccccc12)C(C)C` [F]: the pIC50 was 7.00 to 8.00 on BIR-3 domain of XIAP and over 8.00 at BIR-3 domain of cIAP-1. Further, the pEC50 in the test with SK-OV-3 cells was 7.00 to 8.00.
In the case of `CN[C@@H](C)C(=O)N[C@H](C(=O)N1CCC[C@H]1Cc1c[nH]c2ccc(C)cc12)C(C)C` [G], the values for the pIC50 at BIR-3 domain of XIAP and on BIR-3 domain of cIAP-1 were 7.00 to 8.00 and over 8.00, respectively. Also, in the test with SK-OV-3 cells, the pEC50 is 7.00 to 8.00.
Turning to `CC(C)[C@H](NC(=O)[C@H](C)N)C(=O)N1CCC[C@H]1Cc1c(-c2ccc(-c3oc4ccccc4c3C[C@@H]3CCCN3C(=O)[C@@H](NC(=O)[C@H](C)N)C(C)C)cc2)[nH]c2ccccc12` [J], the pIC50 at BIR-3 domain of XIAP and at BIR-3 domain of cIAP-1 was under 7.00 throughout. In the test on SK-OV-3 cells, the negative-log EC50 (pEC50) was under 7.00.
As to `CN[C@@H](C)C(=O)N[C@H](C(=O)N1CCC[C@H]1Cc1cn(CCOCCn2cc(C[C@@H]3CCCN3C(=O)[C@@H](NC(=O)[C@H](C)NC)C3CCCCC3)c3ccccc32)c2ccccc12)C1CCCCC1` [K], the figures for the pIC50 on BIR-3 domain of XIAP and on BIR-3 domain of cIAP-1 were under 7.00 and 7.00 to 8.00, respectively. Besides, the negative-log EC50 (pEC50) in the test on SK-OV-3 cells is 7.00 to 8.00.
Take `CC(C)[C@@H](NC(=O)[C@@H](C)N)C(=O)N1CCC[C@@H]1Cc1c(-c2ccc(-c3oc4ccccc4c3C[C@H]3CCCN3C(=O)[C@H](NC(=O)[C@@H](C)N)C(C)C)cc2)[nH]c2ccccc12` [L]: the values for the pIC50 at BIR-3 domain of XIAP and at BIR-3 domain of cIAP-1 were under 7.00 and 7.00 to 8.00, respectively. The pEC50 in the test with SK-OV-3 cells was over 8.00.
With `CN[C@@H](C)C(=O)N[C@H](C(=O)N1C[C@@H](O)C[C@H]1Cc1c(-c2ccc(-c3[nH]c4ccccc4c3C[C@@H]3C[C@H](O)CN3C(=O)[C@@H](NC(=O)[C@H](C)NC)C(C)(C)C)cc2)[nH]c2ccccc12)C(C)(C)C` [M], the pIC50 on BIR-3 domain of XIAP and at BIR-3 domain of cIAP-1 was 7.00 to 8.00 in each case. The pEC50 in the test on SK-OV-3 cells was 7.00 to 8.00.
In the case of `CN[C@@H](C)C(=O)N[C@H](C(=O)N1CCC[C@H]1Cc1c(-c2ccc(-c3c(C[C@@H]4CCCN4C(=O)[C@@H](NC(=O)[C@H](C)NC)C(C)(C)C)c4ccc(F)cc4n3CCO)cc2)n(CCO)c2cc(F)ccc12)C(C)(C)C` [N], the pIC50 on BIR-3 domain of XIAP and at BIR-3 domain of cIAP-1 was 7.00 to 8.00 each time. In addition, in the test on SK-OV-3 cells, the negative-log EC50 (pEC50) was over 8.00.
Turning to `CN[C@@H](C)C(=O)N[C@H](C(=O)N1CCC[C@H]1Cc1c(-c2ccc(-c3c(C[C@@H]4CCCN4C(=O)[C@@H](NC(=O)[C@H](C)NC)C(C)C)c4ccc(F)cc4n3CCOC(C)=O)cc2)n(CCOC(C)=O)c2cc(F)ccc12)C(C)C` [O], the pIC50 at BIR-3 domain of XIAP and on BIR-3 domain of cIAP-1 was under 6.00 in each case. In addition, the pEC50 with SK-OV-3 cells is under 6.00.
For the compound `CN[C@@H](C)C(=O)N[C@H](C(=O)N1CCC[C@H]1Cc1c(-c2ccc(C(=O)OC)cc2)n(CCOCCOCCOC)c2cc(F)ccc12)C(C)(C)C` [P], the pIC50 on BIR-3 domain of XIAP and at BIR-3 domain of cIAP-1 was 7.00 to 8.00 throughout. In addition, the pEC50 in the test with SK-OV-3 cells is over 8.00.
